# Assay results as given in PMC8469748, “A Method for Rapid Screening, Expression, and Purification of Antimicrobial Peptides” (Microorganisms, 2021).
# Entries after “also recorded” stand apart in the source; their conditions may differ.
# Columns and labels:
# E. coli DH5α = experiment: Inhibition zone test (agarose plate, Oxford cup); format: cell-based
# Experimental: To measure AMP activity, the agarose plate method was employed. Microorganisms for inhibition testing were activated, 3–5 single colonies were picked and placed in liquid LB medium, cultured on a shaker at 37 °C for 6 h. Solid LB medium was melted by heating, 500 μL of liquid bacterial culture was added for every 100 mL of medium after cooling slightly, and the mixture was poured into a bacterial plate to solidify. Oxford cups were inserted into the solidified mixed bacterial plate, while being careful not to penetrate the medium completely, so as not to affect the penetration of the test liquid on the plate. Attention was paid to the spacing between the Oxford cups. Corresponding Oxford cups were marked and positive/negative controls (100 μL each) were added. Plates were incubated at 37 °C overnight to observe the antibacterial effects.
# The E. coli DH5α mixed bacteria plate was prepared as described above. Two negative controls (HRV 3C Cleavage Buffer and 1 M NaCl) and a positive control (2 mg/mL ampicillin) were included.
# E. coli = experiment: MIC test (96-well plate, OD600); format: cell-based; details: for minimum concentration that inhibited an increase in the OD600 of the bacterial solution (MIC): 96-well plate, final 128 to 0.25 mg/L; for inhibition activity against testing microorganisms (MIC test): AMP expressed and purified in E. coli, up to 128 mg/L
# Experimental: When measuring the minimum inhibitory concentration (MIC) of the expressed and purified AMPs, we performed the test according to the Clinical and Laboratory Standards Association. Specifically, microorganisms to be tested were activated, and five colonies were picked and separately cultured into liquid medium on a shaker (220 rpm) at 37 °C until the absorbance at 600 nm (OD600) reached 0.13–0.17; thus, corresponding to a biomass concentration of ~1 × 10^8 colony-forming units (CFU)/mL. Samples for testing were diluted to 4 mM, and two-fold serial dilutions were performed in a 96-well plate, with the concentration ranging from 100 to 0.195 μM. Each dilution (50 μL) was performed in duplicate. Next, 50 μL of microbial culture containing ~1 × 10^6 CFU/mL was added to each well. After incubating overnight at 37 °C, OD600 was measured using a microplate spectrophotometer.
# Figure 8 The schematic diagram of a 96-well plate measuring MIC (data taken from three parallel experiments). Horizontal direction is AMP 1, 2, 6, 13, 16 test rows; Vertical direction 1–10 is the final concentration of 128 mg/L to 0.25 mg/L of these AMPs, respectively; 11 is the negative control; 12 is a positive control, the 20 mg/L ampicillin.
# Figure 13B is a schematic diagram of the 96-well plate MIC experiment (data are from three parallel replicates). The horizontal direction is AMP13 from P. pastoris, the vertical direction is the final peptide concentration (128 mg/L to 0.25 mg/L), 11 is the negative control and 12 is the positive control (20 mg/L ampicillin).
# [1] = AMP expressed in E. coli and purified, mixed bacteria LB agar plate, Oxford cup, 100 μL liquid per cup, 37 °C overnight
# [2] = AMP expressed in E. coli, two-fold dilutions, overnight 37 °C, three parallel experiments
Compound,"Inhibition zone (E. coli DH5α; positive control, 2 mg/mL ampicillin, E. coli DH5α mixed bacteria plate, test of P. pastoris AMP13)","Inhibition zone (E. coli DH5α; positive control, ampicillin 200 mg/L, 100 μL per Oxford cup, plates of E. coli-derived AMPs)",Inhibition zone (E. coli DH5α; [1]),minimum concentration that inhibited an increase in the OD600 of the bacterial solution (MIC) (E. coli; [2]) [µg/mL],inhibition activity against testing microorganisms (MIC test) (E. coli),"Inhibition zone (E. coli DH5α; AMP13 produced by P. pastoris (PZEAP13), E. coli DH5α mixed bacteria plate, Oxford cup, 100 μL)","MIC (E. coli; AMP13 from P. pastoris, equated from 16 mg/L) [µM]","minimum concentration that inhibited an increase in the OD600 of the bacterial solution (MIC) (E. coli; AMP13 produced by P. pastoris (PZEAP13), three parallel replicates) [µg/mL]","effective MIC (E. coli; AMP13 purified from P. pastoris, discussion) [µg/mL]"
"CC1(C)S[C@@H]2[C@H](NC(=O)[C@H](N)c3ccccc3)C(=O)N2[C@H]1C(=O)O [ampicillin, reference compound]",there was an inhibition zone,there was an inhibition zone,–,–,–,–,–,–,–
"DSHAKRHHGYKRKFHEKHHSHRGY [AMP16, antimicrobial peptide selected from the AMP library website, expressed as CL7 fusion in E. coli and released by HRV 3C protease]",–,–,there was an inhibition zone,64,–,–,–,–,–
"ITPATPFTPAIITEITAAVIA [AMP1, antimicrobial peptide selected from the AMP library website, expressed as CL7 fusion in E. coli and released by HRV 3C protease]",–,–,no inhibition zones,128,no inhibition activity; also recorded: did not exhibit detectable antibacterial activity,–,–,–,–
"VFQFLGKIIHHVGNFVHGFSHVF [AMP6, antimicrobial peptide selected from the AMP library website, expressed as CL7 fusion in E. coli and released by HRV 3C protease]",–,–,no inhibition zones,> 128,no inhibition activity; also recorded: did not exhibit detectable antibacterial activity,–,–,–,–
"ILPWKWPWWPWRR [AMP2, antimicrobial peptide selected from the AMP library website, expressed as CL7 fusion in E. coli and released by HRV 3C protease]",–,–,no inhibition zones,> 128,no inhibition activity; also recorded: did not exhibit detectable antibacterial activity,–,–,–,–
"GFCRCLCRRGVCRCICTR [AMP13, antimicrobial peptide selected from the AMP library website, expressed as CL7 fusion in E. coli and in P. pastoris, released by HRV 3C protease]",–,–,there was an inhibition zone,32,–,showed inhibition activity; also recorded: clear circle of inhibition,8.1,16,16
